Counter-ions that a name gives are not always drawn. Like-named read-outs stand apart in the source and are kept apart here.
Assays:
wild-type EGFR = target: T1, wild-type EGFR (Homo sapiens, UniProt P00533); experiment: Enzymology experiment in vitro (HTRF/FRET kinase activity), wild-type EGFR; type: biochemical; settings: HTRF KinEASE-TK, read-out: EGFR (WT) IC50
T1 construct: purchased Signalchem
Method: (§1) 1. Experimental Materials
(§2) HTRF KinEASE-TK kit detection reagent, purchased from Cisbio
(§3) 1) 10 nL of gradient diluted compound was transferred into a 384-well experimental plate using Echo 550 (Labcyte).
(§4) 2) 5 μL of 2×EGFR enzyme solution was added to the 384-well experimental plate and incubated at room temperature for 10 minutes.
(§5) 3) 5 μL of 2× substrate solution containing polypeptide and ATP was added to the 384-well experimental plate and incubated at room temperature for 40 minutes.
(§6) 4) 10 μL of detection solution containing EDTA, XL665-labeled streptavidin and Eu^3+-labeled antibody was added thereto and incubated at room temperature for 1 hour.

[1] = test system: EGFR wild-type cell line A431; experiment: Cell proliferation inhibition experiment (CellTiter-Glo), A431; type: cell-based; settings: Homo sapiens, A431 cells, Cell Titer-Glo, read-out: A431 EGFR WT IC50
Method: A431 cells, purchased from ATCC.
1) A431 cells were inoculated in a 384-well culture plate at a density of 800 cells per well, 30 μL per well, placed in a cell incubator, and cultured for 24 hours (37° C., 5% CO2).
(§7) 3) 30 nL of gradient diluted compound was transferred into the 384-well experimental plate using Echo 550 (Labcyte) at a DMSO final concentration of 0.1%, and the culture plate was incubated in a cell incubator for 72 hours (37° C., 5% CO2).
(§8) 4) 30 μL of Cell Titer-Glo reagent was added to each well and left for 30 minutes at room temperature and protected from light.
(§9) 5) Envision microplate reader (PerkinElmer) detected chemiluminescence signals.
(§10) 6) GraphPad Prism 8 software was used for data analysis to obtain the IC50 of the compounds of the present disclosure and the positive control.

[2] = target: T2, L858R/T790M/C797S triple mutant EGFR (Homo sapiens, UniProt P00533, C797S/L858R/T790M); experiment: Enzymology experiment in vitro (HTRF/FRET kinase activity), L858R/T790M/C797S triple mutant EGFR; type: biochemical; settings: HTRF KinEASE-TK, read-out: EGFR (L858R/T790M/C797S) IC50
T2 construct: purchased Signalchem
T2 sequence (P00533 25-1210 T790M/C797S/L858R): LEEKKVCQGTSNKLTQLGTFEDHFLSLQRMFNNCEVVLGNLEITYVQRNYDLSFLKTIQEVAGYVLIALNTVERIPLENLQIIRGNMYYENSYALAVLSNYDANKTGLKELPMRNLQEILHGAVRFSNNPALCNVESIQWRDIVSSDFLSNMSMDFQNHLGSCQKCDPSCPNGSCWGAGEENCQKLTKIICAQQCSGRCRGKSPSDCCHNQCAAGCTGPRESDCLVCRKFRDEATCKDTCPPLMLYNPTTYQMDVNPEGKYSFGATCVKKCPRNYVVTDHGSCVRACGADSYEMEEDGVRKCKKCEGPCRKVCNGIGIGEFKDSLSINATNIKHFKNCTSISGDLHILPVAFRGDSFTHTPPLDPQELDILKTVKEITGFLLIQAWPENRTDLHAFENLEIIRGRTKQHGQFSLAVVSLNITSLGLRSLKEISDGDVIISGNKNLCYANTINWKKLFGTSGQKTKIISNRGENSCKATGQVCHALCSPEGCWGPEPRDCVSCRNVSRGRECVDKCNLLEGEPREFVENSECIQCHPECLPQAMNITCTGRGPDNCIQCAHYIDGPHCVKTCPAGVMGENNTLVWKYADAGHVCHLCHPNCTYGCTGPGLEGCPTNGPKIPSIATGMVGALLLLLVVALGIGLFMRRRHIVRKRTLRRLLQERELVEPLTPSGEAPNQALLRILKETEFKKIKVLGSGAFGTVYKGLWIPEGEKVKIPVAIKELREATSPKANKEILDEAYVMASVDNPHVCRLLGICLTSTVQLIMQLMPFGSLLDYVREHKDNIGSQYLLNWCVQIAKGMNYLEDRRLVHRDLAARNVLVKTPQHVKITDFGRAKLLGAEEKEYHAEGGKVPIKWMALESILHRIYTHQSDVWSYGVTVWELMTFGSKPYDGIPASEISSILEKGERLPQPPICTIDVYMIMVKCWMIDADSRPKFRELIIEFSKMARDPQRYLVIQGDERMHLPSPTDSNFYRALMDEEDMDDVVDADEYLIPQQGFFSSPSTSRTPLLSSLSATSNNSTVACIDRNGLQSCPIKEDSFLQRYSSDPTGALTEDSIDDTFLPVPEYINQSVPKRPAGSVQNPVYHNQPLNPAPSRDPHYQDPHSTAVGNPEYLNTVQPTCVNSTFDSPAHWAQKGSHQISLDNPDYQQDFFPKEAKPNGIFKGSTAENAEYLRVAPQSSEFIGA
Method: as §1, §2, §3, §4, §5, §6

[3] = target: Ba/F3 L858R/T790M/C797S EGFR triple mutant cell line (Homo sapiens, UniProt P00533, T790M/C797S/L858R, cells depend on it); experiment: Cell proliferation inhibition experiment (CellTiter-Glo), Ba/F3 L858R/T790M/C797S; type: cell-based; settings: 72 hours, Cell Titer-Glo, read-out: Ba/F3 (L858R/T790M/C797S) IC50
Chain of Ba/F3 L858R/T790M/C797S EGFR triple mutant cell line (P00533 whole entry T790M/C797S/L858R): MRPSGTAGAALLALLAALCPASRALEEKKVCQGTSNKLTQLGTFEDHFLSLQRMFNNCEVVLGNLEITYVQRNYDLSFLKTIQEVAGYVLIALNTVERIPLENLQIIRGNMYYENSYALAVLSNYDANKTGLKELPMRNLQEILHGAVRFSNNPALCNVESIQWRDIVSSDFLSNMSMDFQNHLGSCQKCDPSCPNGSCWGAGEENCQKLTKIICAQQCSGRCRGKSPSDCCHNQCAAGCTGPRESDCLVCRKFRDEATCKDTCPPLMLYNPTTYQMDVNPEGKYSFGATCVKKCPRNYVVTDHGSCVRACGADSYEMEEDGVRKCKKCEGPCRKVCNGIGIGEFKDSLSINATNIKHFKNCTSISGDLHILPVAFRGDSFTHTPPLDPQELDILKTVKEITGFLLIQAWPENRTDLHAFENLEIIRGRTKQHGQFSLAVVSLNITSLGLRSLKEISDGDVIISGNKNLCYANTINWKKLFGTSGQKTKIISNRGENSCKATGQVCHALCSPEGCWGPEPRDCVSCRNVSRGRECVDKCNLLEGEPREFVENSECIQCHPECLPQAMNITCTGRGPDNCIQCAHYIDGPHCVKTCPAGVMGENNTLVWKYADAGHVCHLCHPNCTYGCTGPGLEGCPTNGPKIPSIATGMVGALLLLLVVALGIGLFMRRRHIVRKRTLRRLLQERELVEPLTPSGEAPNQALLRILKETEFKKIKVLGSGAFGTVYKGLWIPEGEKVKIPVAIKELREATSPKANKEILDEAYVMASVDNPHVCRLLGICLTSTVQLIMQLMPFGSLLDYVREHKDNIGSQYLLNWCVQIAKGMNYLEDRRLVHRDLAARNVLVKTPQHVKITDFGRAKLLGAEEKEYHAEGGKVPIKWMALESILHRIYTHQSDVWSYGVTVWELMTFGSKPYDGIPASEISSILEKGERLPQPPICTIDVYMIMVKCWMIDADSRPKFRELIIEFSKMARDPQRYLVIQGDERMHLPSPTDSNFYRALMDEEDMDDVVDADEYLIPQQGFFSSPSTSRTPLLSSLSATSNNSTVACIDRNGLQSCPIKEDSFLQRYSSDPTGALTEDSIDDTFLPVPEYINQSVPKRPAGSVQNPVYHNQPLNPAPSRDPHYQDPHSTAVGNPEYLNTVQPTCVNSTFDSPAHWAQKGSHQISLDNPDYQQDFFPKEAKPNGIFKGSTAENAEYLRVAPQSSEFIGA
Method: as §7, §8, §9, §10

[4] = target: Ba/F3 De119/T790M/C797S EGFR triple mutant cell line (Homo sapiens, UniProt P00533, T790M/C797S, cells depend on it, form not given); experiment: Cell proliferation inhibition experiment (CellTiter-Glo), Ba/F3 De119/T790M/C797S; type: cell-based; settings: Ba/F3 Del19/T790M/C797S EGFR triple mutant cells, 72 hours, Cell Titer-Glo; read-out: Ba/F3 (Del19/T790M/C797S) IC50
Chain of Ba/F3 De119/T790M/C797S EGFR triple mutant cell line (P00533 with tags, fused parts or gaps DEL746-750/T790M/C797S, form open): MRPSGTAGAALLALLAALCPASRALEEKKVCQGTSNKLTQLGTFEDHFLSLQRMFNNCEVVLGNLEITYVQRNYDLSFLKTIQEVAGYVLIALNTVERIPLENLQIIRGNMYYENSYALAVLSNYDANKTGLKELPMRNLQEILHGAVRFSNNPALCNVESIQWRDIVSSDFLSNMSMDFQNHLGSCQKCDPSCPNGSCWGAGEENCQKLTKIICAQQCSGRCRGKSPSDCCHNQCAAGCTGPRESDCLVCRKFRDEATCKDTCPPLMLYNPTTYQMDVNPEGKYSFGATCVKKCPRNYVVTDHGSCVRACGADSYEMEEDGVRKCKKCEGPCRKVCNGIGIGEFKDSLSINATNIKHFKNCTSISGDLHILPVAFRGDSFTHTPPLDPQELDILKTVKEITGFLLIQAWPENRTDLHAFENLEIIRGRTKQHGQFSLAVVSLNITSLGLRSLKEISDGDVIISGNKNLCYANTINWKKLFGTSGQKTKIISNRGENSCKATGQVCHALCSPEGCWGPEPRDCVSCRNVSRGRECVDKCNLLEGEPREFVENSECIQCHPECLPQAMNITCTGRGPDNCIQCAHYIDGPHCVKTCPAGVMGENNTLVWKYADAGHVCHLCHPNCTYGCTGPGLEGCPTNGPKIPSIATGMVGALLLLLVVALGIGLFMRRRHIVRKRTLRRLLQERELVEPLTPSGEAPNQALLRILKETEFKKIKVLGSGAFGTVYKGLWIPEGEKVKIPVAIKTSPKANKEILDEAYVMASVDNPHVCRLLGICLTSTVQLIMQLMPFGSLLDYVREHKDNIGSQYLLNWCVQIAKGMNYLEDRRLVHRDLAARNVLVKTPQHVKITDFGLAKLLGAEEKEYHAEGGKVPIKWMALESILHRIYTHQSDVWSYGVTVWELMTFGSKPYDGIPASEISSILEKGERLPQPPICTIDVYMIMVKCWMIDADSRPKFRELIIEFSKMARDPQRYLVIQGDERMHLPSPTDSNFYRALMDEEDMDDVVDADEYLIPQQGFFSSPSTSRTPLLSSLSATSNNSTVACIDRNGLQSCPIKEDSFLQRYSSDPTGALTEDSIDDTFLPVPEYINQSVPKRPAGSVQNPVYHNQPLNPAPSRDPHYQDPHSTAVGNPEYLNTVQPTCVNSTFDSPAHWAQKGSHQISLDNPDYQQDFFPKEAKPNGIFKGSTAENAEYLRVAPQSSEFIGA
Method: as §7, §8, §9, §10

T1 sequence (P00533 25-1210): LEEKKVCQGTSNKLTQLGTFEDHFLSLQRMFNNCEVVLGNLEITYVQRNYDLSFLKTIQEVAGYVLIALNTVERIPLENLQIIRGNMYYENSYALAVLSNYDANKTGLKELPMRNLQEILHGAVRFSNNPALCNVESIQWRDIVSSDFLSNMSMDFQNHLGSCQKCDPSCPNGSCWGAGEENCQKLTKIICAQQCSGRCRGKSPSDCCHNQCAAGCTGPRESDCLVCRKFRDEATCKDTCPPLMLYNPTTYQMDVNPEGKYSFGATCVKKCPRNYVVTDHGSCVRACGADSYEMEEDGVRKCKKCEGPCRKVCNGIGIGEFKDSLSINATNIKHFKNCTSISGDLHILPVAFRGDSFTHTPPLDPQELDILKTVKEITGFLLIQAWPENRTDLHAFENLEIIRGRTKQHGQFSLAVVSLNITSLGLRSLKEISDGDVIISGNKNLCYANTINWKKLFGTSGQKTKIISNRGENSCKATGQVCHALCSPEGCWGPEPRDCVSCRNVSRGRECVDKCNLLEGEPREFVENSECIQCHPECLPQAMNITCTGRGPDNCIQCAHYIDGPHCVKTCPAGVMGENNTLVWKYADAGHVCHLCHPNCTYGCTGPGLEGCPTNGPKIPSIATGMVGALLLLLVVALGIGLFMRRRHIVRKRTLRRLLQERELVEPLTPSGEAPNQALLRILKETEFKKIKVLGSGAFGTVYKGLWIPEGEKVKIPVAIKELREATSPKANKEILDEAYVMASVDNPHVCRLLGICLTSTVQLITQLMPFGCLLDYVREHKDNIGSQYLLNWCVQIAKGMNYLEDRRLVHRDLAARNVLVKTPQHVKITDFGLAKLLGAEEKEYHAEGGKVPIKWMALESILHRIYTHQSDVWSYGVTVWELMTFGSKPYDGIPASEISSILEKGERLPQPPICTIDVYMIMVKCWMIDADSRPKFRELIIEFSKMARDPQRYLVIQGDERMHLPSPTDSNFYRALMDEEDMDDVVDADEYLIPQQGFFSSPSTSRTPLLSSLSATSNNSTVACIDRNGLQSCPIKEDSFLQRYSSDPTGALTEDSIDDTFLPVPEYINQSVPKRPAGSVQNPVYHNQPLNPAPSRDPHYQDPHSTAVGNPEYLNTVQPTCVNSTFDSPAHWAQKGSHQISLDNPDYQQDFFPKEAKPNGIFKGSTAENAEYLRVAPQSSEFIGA

Compound | IC50 (wild-type EGFR) [nM] | IC50 ([1]; A-431, 72 h) [nM] | IC50 [2] [nM] | GI50 [3] [nM] | GI50 [4] [nM] | IC50 ([1]; A-431, 72 hours) [nM]
COc1cc(N2CCN(C)CC2)c(-c2cnn(C)c2)cc1Nc1ncc(Br)c(Nc2ccc3nccnc3c2P(C)(C)=O)n1 [Compound 6] | 0.17 | 24.5 | < 0.05 | 5.96 | 1.99 | –
COc1nc(N2CCOCC2)c(-c2cnn(C)c2)cc1Nc1ncc(Br)c(Nc2ccc3nccnc3c2P(C)(C)=O)n1 [Compound 7, (6-((5-bromo-2-((2-methoxy-5-(1-methyl-1H-pyrazol-4-yl)-6-morpholinylpyridin-3-yl)amino)pyrimidin-4-yl)amino)quinoxalin-5-yl)dimethylphosphine oxide] | 9.88 | 159 | 0.23 | 14.8 | 4.43 | –
COc1cc(N2CCOCC2)c(-c2cnn(S(=O)(=O)C3CC3)c2)cc1Nc1ncc(Br)c(Nc2ccc3nccnc3c2P(C)(C)=O)n1 [Compound 8, (6-((5-bromo-2-((5-(1-(cyclopropylsulfonyl)-1H-pyrazol-4-yl)-2-methoxy-4-morpholinylphenyl)amino)pyrimidin-4-yl)amino)quinoxalin-5-yl)dimethylphosphine oxide] | 358 | 769 | 3.19 | 137 | 69 | –
COc1cc(N2CCOCC2)c(-c2cnn(C)c2)cc1Nc1ncc(C#N)c(Nc2ccc3nccnc3c2P(C)(C)=O)n1 [Compound 13, 4-((5-(dimethylphosphoryl)quinoxalin-6-yl)amino)-2-((2-methoxy-5-(1-methyl-1H-pyrazol-4-yl)-4-morpholinylphenyl)amino)pyrimidine-5-carbonitrile] | 7.62 | 398 | 0.89 | 84.3 | 43.4 | –
COc1cc(N2CCC3(CC2)CN(C)C3)c(-c2cnn(C)c2)cc1Nc1ncc(Br)c(Nc2ccc3nccnc3c2P(C)(C)=O)n1 [Compound 16, (6-((5-bromo-2-((2-methoxy-5-(1-methyl-1H-pyrazol-4-yl)-4-(2-methyl-2,7-diazaspiro[3.5]nonan-7-yl)phenyl)amino)pyrimidin-4-yl)amino)quinoxalin-5-yl)dimethylphosphine oxide formate] | 0.51 | – | 0.05 | 23.5 | 13.2 | 51.3
Cn1cc(-c2cc(Nc3ncc(Br)c(Nc4ccc5nccnc5c4P(C)(C)=O)n3)c3c(c2N2CCOCC2)CCO3)cn1 [Compound 17, (6-((5-bromo-2-((5-(1-methyl-1H-pyrazol-4-yl)-4-morpholino-2,3-dihydrobenzofuran-7-yl)amino)pyrimidin-4-yl)amino)quinoxalin-5-yl)dimethylphosphine oxide] | 3.61 | 67.8 | 0.08 | 2.13 | 1.28 | –
CCc1cnc(Nc2cc(-c3cnn(C)c3)c(N3CCOCC3)cc2OC)nc1Nc1ccc2nccnc2c1P(C)(C)=O [Compound 31, (6-((5-ethyl-2-((2-methoxy-5-(1-methyl-1H-pyrazol-4-yl)-4-morpholinylphenyl)amino)pyrimidin-4-yl)amino)quinoxalin-5-yl)dimethylphosphine oxide] | 0.38 | 194 | 0.25 | 12.8 | 4.58 | –
COc1cc(N2CCOCC2)c(-c2cnn(C)c2)cc1Nc1ncc(Br)c(Nc2cc(C)c3nccnc3c2P(C)(C)=O)n1 [Compound 33, (6-((5-bromo-2-((2-methoxy-5-(1-methyl-1H-pyrazol-4-yl)-4-morpholinylphenyl)amino)pyrimidin-4-yl)amino)-8-methylquinoxalin-5-yl)dimethylphosphine oxide] | 50.2 | 1420 | 0.26 | 32.5 | 10.1 | –
COc1cc(S(=O)(=O)N(C)C)c(-c2cnn(C)c2)cc1Nc1ncc(Br)c(Nc2ccc3nccnc3c2P(C)(C)=O)n1 [Compound 35, 4-((5-bromo-4-((5-(dimethylphosphoryl)quinoxalin-6-yl)amino)pyrimidin-2-yl)amino)-5-methoxy-N,N-dimethyl-2-(1-methyl-1H-pyrazol-4-yl)benzenesulfonamide] | 384 | 752 | 11.9 | 327 | 93.2 | –

Now from value to compound, other results behind:

IC50 (wild-type EGFR) [nM] | IC50 ([1]; A-431, 72 h) [nM] | IC50 [2] [nM] | GI50 [3] [nM] | GI50 [4] [nM] | Compound | IC50 ([1]; A-431, 72 hours) [nM]
21.1 | 371 | 0.31 | 34.5 | 8.64 | COc1cc(N2CCOCC2)c(-c2cnn(C)c2)cc1Nc1ncc(C2CC2)c(Nc2ccc3nccnc3c2P(C)(C)=O)n1 [Compound 41, (6-((5-cyclopropyl-2-((2-methoxy-5-(1-methyl-1H-pyrazol-4-yl)-4-morpholinylphenyl)amino)pyrimidin-4-yl)amino)quinoxalin-5-yl)dimethylphosphine oxide] | –
166 | ≥ 5000 | 1.24 | 69.2 | 6.76 | COc1cc(N2CCOCC2)c(-c2cnn(C)c2)cc1Nc1nccc(Nc2ccc3nccnc3c2P(C)(C)=O)n1 [Compound 42, (6-((2-((2-methoxy-5-(1-methyl-1H-pyrazol-4-yl)-4-morpholinophenyl)amino)pyrimidin-4-yl)amino)quinoxalin-5-yl)dimethylphosphine oxide] | –
17.4 | 303 | 0.17 | 19.2 | 5.91 | COc1cc(C2CCOCC2)c(-c2cnn(C)c2)cc1Nc1ncc(Br)c(Nc2ccc3nccnc3c2P(C)(C)=O)n1 [Compound 69] | –
29.9 | 633 | 0.45 | 13.5 | 9.89 | COc1cc(N2CCOCC2)c(-c2cnn(C)c2)cc1Nc1ncc(Br)c(Nc2cc3c(cc2P(C)(C)=O)CC3)n1 [Compound 79, (4-((5-bromo-2-((2-methoxy-5-(1-methyl-1H-pyrazol-4-yl)-4-morpholinylphenyl)amino)pyrimidin-4-yl)amino)bicyclo[4.2.0]octa-1,3,5-trien-3-yl)dimethylphosphine oxide] | –
8.85 | 415 | 0.01 | 10.1 | 5.37 | COc1cc(N2CCOCC2)c(-c2cnn(C)c2)cc1Nc1ncc(Br)c(Nc2ccccc2NS(C)(=O)=O)n1 [Compound 80] | –
18.2 | 180 | 0.28 | 21.7 | 7.85 | Cn1cc(-c2cc(Nc3ncc(Br)c(Nc4ccc5nccnc5c4P(C)(C)=O)n3)c3c(c2)OCO3)cn1 [Compound 82, (6-((5-bromo-2-((6-(1-methyl-1H-pyrazol-4-yl)benzo[d][1,3]dioxol-4-yl)amino)pyrimidin-4-yl)amino)quinoxalin-5-yl)dimethylphosphine oxide] | –
4.26 | 40.9 | 0.09 | 4.45 | 2.18 | COc1cc(N2CCN(C(C)C)CC2)c(-c2cnn(C)c2)cc1Nc1ncc(Br)c(Nc2ccc3nccnc3c2P(C)(C)=O)n1 [Compound 88, (6-((5-bromo-2-((4-(4-isopropylpiperazin-1-yl)-2-methoxy-5-(1-methyl-1H-pyrazol-4-yl)phenyl)amino)pyrimidin-4-yl)amino)quinoxalin-5-yl)dimethylphosphine oxide] | –
1250 | 2240 | 22 | 444 | 281 | COc1cc(N2CCOCC2)c(-c2cnn(C)c2)cc1Nc1nc(Nc2ccccc2P(C)(C)=O)c2ccccc2n1 [compound 3] | –

From patent US20230219986A1, “NOVEL AMINOPYRIMIDINE EGFR INHIBITOR” (QILU PHARMACEUTICAL CO., LTD., priority 2020, published 2023)
